According to patent US20100273652A1 (priority 2009, published 2010):

Tests used:
Format in all cases: cell-based
Fusarium graminearum = test system: Fusarium graminearum
Fusarium proliferatum = assay: Growth inhibition of Fusarium proliferatum (OD620); conditions: OD620 at start and after 5 days
[1] = test system: DON/Acetyl-DON production of Fusarium graminearum
[2] = test system: fumonisin FB1 production of Fusarium proliferatum; assay: Inhibition of fumonisin FB1 production of Fusarium proliferatum; conditions: 5 days, 20° C., vs control without compound

SMILES	% inhibition at 50 μM Fusarium graminearum (growth) (Fusarium graminearum)	% inhibition at 50 μM Fusarium proliferatum (growth) (Fusarium proliferatum)	% inhibition at 50 μM DON/AcDON [1]	% inhibition at 50 μM FB1 [2]
C=C=Cn1c(-c2ccncc2)c(-c2ccc(F)cc2)c2ncccc21 [Example 15]	33%	37%	44%	
Nc1cc(-c2[nH]c3cccnc3c2-c2ccc(F)cc2)ccn1 [Example 4]		31%		45%
